Experimental findings from PubChem BioAssay AID463204 (Broad Institute, 2010) are described below.

Calls of active or inactive are those of the source.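 Rule for the calls: active = AC50 no more than ten times the top concentration tested, that is within one log above it; inconclusive = flat curve fit with activity between 30% and 70%, or invalid poor fit; inactive = AC50 beyond ten times the top tested dose.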 Some results are limits rather than exact numbers.

This test relates to S. cerevisiae Mot1-301 ts growth rescue, BacTiter-Glo ATP luminescence. Briefly: growth rescue of Mot1-301 ts yeast, confirmation, SUMOylation pathway inhibitor project, whole organism, S. cerevisiae, Mot1-301 ts mutant, luminescence, dose retest (AID 463204).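 Note: growth at restrictive 38.5 degrees C of Mot1-301 OY566 strain; actives raise luminescence by restoring growth of the ts mutant at high temperature.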
Turning to `O=C1CC(N(CCc2ccccc2)C(=S)Nc2ccccc2)C(=O)N1c1ccc(F)cc1` (stereo unspecified), the AC50 (as a rule, the midpoint of the concentration-response curve, whichever way the signal moves) was > 42 µM (inactive).
As for `CCOc1ccc(Br)cc1CNCCN1CCOCC1`, the AC50 is > 42 µM (inactive).
To `CCN(CC)c1ncnc2ccc(Br)cc12` belongs > 42 µM (inactive); to `CCc1cc2c(NCCO)ncnc2s1`, > 42 µM (inactive); to `N#Cc1ccc2[nH]c(CO)c(-c3ccccc3)c2c1`, > 42 µM (inactive).
Then `CCOc1cc(/C=N/NC(=O)C(=O)N/N=C/c2ccc(O)c(OCC)c2)ccc1O`, with > 42 µM (inactive).
In the case of `O=C(Nc1ccccc1F)C1CCN(C(=O)Cc2ccccc2)CC1`, the AC50 was > 42 µM (inactive).
Take `Cc1n[nH]c(=O)nc1NCc1ccc(Cl)cc1`: the AC50 was > 42 µM (inactive).
As to `FC(F)(F)c1nnc(-c2ccccc2)nc1Oc1ccc(Cl)cc1Cl`, the AC50 is > 42 µM (inactive).
To `C/C(CC(=O)Nc1cccnc1)=N\NC(=O)C(C)Oc1ccc(Cl)cc1Cl` (stereo unspecified) belongs > 42 µM (inactive); to `CCOc1ccc(-c2c(C(=O)N/N=C/c3ccncc3)nnn2-c2nonc2N)cc1`, > 42 µM (inactive).
As for `O=C(Nc1ccc2c(c1)CCCN2C(=O)c1cccs1)c1cccc(F)c1`, the AC50 is > 42 µM (inactive).
As for `CSc1ccccc1-c1nc(-c2ccncc2)no1`, the AC50 was > 42 µM (inactive).
For `O=C(Nc1ccc(Cl)cc1)C1=Cc2ccccc2OC1`, the half-maximal activity concentration (AC50) is 40.9 µM.
Consider `CC(C)(C)n1nnnc1C(c1ccc(Cl)cc1)N(Cc1cccnc1)Cc1ccco1` (stereo unspecified), for which the AC50 is 7.98 µM.
For the compound `CCOC(=O)C1=C(N)c2ccccc2CC1C1CCCC1` (stereo unspecified), the AC50 was > 42 µM (inactive).
To `Cc1cc(C)n(C(=O)CNC(=O)c2ccc3c(c2)OCCO3)n1` belongs > 42 µM (inactive).
Then `COc1ccc(N2C(=O)CSC2c2ccc([N+](=O)[O-])cc2)cc1` (stereo unspecified), with > 42 µM (inactive); and `COc1ccc(NC(=O)c2ccc(S(=O)(=O)N(C)c3ccccc3)cc2)cn1`, with > 42 µM (inactive).
To `O=C(c1cccnc1)N1CCCC(Nc2ccc(F)cc2)C1` (stereo unspecified) belongs > 42 µM (inactive); to `CCCNC(=O)Cn1sc2nc(C)cc(C)c2c1=O`, > 42 µM (inactive).
For `O=C(CN1c2ccccc2Sc2ccccc21)N/N=C/c1ccc(Cl)cc1Cl`, the AC50 is > 21 µM (inactive).
Take `Cc1ccc(-c2nc(CS(=O)(=O)CC(=O)NC3CCCCC3C)c(C)o2)cc1` (stereo unspecified): the AC50 was > 42 µM (inactive).
With `O=c1nc(-c2ccccc2)cn[nH]1`, the AC50 was > 42 µM (inactive).
As for `Cc1ccc(C2=NN(CC(=O)NCc3cccs3)C(=O)CC2)cc1`, the AC50 is > 42 µM (inactive).
Consider `CCCn1c(=O)c2ccccc2n2c(SCC(=O)N3CCc4ccccc4C3)nnc12`, for which the AC50 was > 42 µM (inactive).
Then `O=C1CCC(C(=O)N2CCN(c3ccccc3)CC2)CN1CC1CCCCC1` (stereo unspecified), with > 42 µM (inactive).
Then `CC1(C)Cc2c(c(N3CCCC3)nc3sc4c(N5CCN(CCO)CC5)ncnc4c23)CO1`, with > 42 µM (inactive).
On to `CC1=C(C#N)S(=O)(=O)C(C#N)C(c2ccccc2)C1` (stereo unspecified), for which the AC50 was > 42 µM (inactive).
As to `O=C(NCC1CCCO1)c1nn2c(C(F)(F)F)cc(-c3cc(Br)cs3)nc2c1Br` (stereo unspecified), the AC50 is > 42 µM (inactive).
On to `CCCNC(=O)c1cc2c(C(F)(F)F)nn(C)c2s1`, for which the AC50 is > 42 µM (inactive).
To `COc1ccc(NC2CCCN(C(=O)CCc3scnc3C)C2)cc1` (stereo unspecified) belongs > 42 µM (inactive); to `Cc1[nH]c2ccccc2c1/C=N/NC(=O)c1cccc(Br)c1`, > 42 µM (inactive); to `Clc1cnc(Oc2ccc(Oc3ncc(Cl)cc3Cl)cc2)c(Cl)c1`, > 42 µM (inactive).
In the case of `CCOc1ccccc1N(C(=O)c1snc(C(N)=O)c1N)C(CC)C(=O)NC1CCCC1` (stereo unspecified), the AC50 is 41.7 µM.
As to `CCOC(=O)C1=C(C)NC(C)=C(C(=O)OCC)C1C(=O)OC1CCOC1=O` (stereo unspecified), the AC50 is > 42 µM (inactive).
